Assay results as given in PMC8625357, “Metabolism of Selected 2-Arylbenzofurans in a Colon In Vitro Model System” (Foods, 2021).
Several values for one entry are separate records, joined by “and”; a condition that tells them apart may be missing. Equal values may be shown once.

Tests used:
[1] = test system: THP-1 human monocytic leukemic cell line; set-up: method as in PMID 24901948; conditions: read-out: cytotoxic activity; cited from earlier work
human fecal microbiota = assay: In vitro batch fermentation with human fecal microbiota; format: in vitro ADME; set-up: final concentration after 8 h of fermentation: reference not given here; conditions: for bacterial metabolites detected: feces from three donors, 8 h
Experimental: Using a batch fermentation model of the human colon, 2-arylbenzofurans were incubated after the addition of human fecal bacteria from three donors. Samples were collected at 0, 2, 4, and 8 h and the effect of microbiota on tested 2-arylbenzofurans was determined by UHPLC/MS HRAM.
Medium was prepared from 225 mL of distilled water, 112.5 mL of macromineral solution, 56.25 μL of micromineral solution, 562.5 μL of 0.1% resazurin solution, and 1.125 g of tryptone. The macromineral solution was prepared from 7.14 g of Na2HPO4, 6.2 g of KH2PO4, 0.6 g of MgSO4, and up to 1 L of distilled water. The micromineral solution was made of 2.64 g of CaCl2, 2 g of MnCl2, CoCl2, 1.6 g of FeCl3, and up to 20 mL of distilled water. CO3 buffer was created by mixing 1 g of NH4HCO3, 8.75 g of NaHCO3, and distilled water up to 250 mL.
Phosphate buffer for fecal slurries was created by dissolving 1.77 g of KH2PO4 in 195 mL of distilled water and 3.62 g of Na2HPO4 in 305 mL of distilled water (both 1/15M). The acidity of the mixed phosphate buffer was adjusted to a neutral pH by hydrochloric acid. The reducing solution was created by mixing 125 mg of cysteine hydrochloride, 125 mg of Na2S, 0.8 mL of 1M NaOH, and distilled water up to 20 mL.
Mulberrofuran Y (1), moracin C (2), and mulberrofuran G (3) were dissolved in DMSO to a final concentration of 10 mg/mL. After boiling the fermentation medium and sodium phosphate buffer, both were cooled to 37 °C. To remove oxygen, the samples were purged with nitrogen gas (approximately 30 min). The pH of the medium was equilibrated to neutral pH using HCl. For each fermentation bottle, 17.18 mL of fermentation medium and 0.8 mL of reducing solution were transferred to create fermentation vials. Fecal slurry was prepared immediately after sampling from each donor by homogenizing the collected feces in a stomacher bag with phosphate buffer to produce a 25% fecal slurry. After filtration through the mesh, 2 mL of the filtered fecal slurry were added to each fermentation bottle. Finally, 20 μL of the tested compound or DMSO as a negative control were added. The bottles were incubated at 37 °C for 8 h with stirring at 100 strokes per minute. Aliquots of fecal suspensions were collected at 0, 2, 4, and 8 h, and stored at −80 °C until further analysis.
First, 400 μL sample of supernatant fluid were defrosted and centrifuged (5 min/15,000 RPM) and the pellet was erased. Supernatant was combined with 20 μL of ^13C6 trans-resveratrol in methanol (2 μg/mL), which was used as an internal standard. Samples were extracted 3 times with 2.5 mL of ethyl acetate and 2 mL of ultra-pure water. After liquid-liquid extraction, ethyl acetate was evaporated with nitrogen gas and redissolved in 1 mL of methanol (VWR Chemicals, Stribrna Skalice, Czech Republic) in combination with formic acid (Fisher Scientific, Merelbeke, Belgium) (1%).
(§1) The analysis was performed on an LC/MS system consisting of an Ultimate 3000 UPLC chromatograph Thermo Fisher Scientific (Waltham, MA, USA) coupled to an Impact II ultra-high resolution high mass accuracy mass spectrometer (HRAM) Q-TOF (Bruker Daltonics, Bremen, Germany) equipped with an electrospray ionization (ESI) source.
(§2) The separation was carried out on a Phenomenex F5 Kinetex column (1.7 μm 100 Å 100 × 2.1 mm) (Phenomenex, Torrance, CA, USA) by using a mobile phase consisting of 0.1% formic acid (solvent A) and methanol (solvent B). The binary gradient was run at a flow rate of 0.2 mL/min as follows: 0–3 min isocratic at 20% B, 3–6 min from 20% to 50% B, 6–15 min isocratic at 100% B, and 15–20 min isocratic at 20% B. The column oven was adjusted to 35 °C, and the injection volume was 5 μL.
For metabolite screening, the ESI source was set in both positive and negative mode. Semiquantitative analysis was performed in negative mode with the parameters listed in the Appendix A. Each compound was confirmed by MS/MS fragmentation with a collision energy voltage (20, 30, and 50 eV). […]

Caco-2 cell line = assay: Permeability and metabolism assay on Caco-2 cell line in Transwell plates; format: in vitro ADME, human; conditions: for Apical side (unchanged parent compound) / Basolateral side (unchanged parent compound) / Cells (unchanged parent compound) / Transformed (converted or metabolized): of the initial 20 μM as 100%, after 4 h; for Transformed (converted or metabolized): remainder
Experimental: as §1, §2
For metabolite screening, the ESI source was set in both positive and negative mode. Semiquantitative analysis was performed in negative mode with the parameters listed in the Appendix A. Each compound was confirmed by MS/MS fragmentation with a collision energy voltage (20, 30, and 50 eV). Data acquisition was performed using HyStar 3.2 SR4, Otof series 4.0 (Bruker Daltonics, Bremen, Germany) and Chromeleon Xpress (Thermo Fisher Scientific, Waltham, MA, USA) software and the data obtained were analyzed by using DataAnalysis 4.3. (Bruker Daltonics, Bremen, Germany). Commercially available standards of mulberrofuran Y (1), moracin C (2), and mulberrofuran G (3), each at 9 concentration levels ranging from 0.5–500 ng/mL, were used for calibration. A list of the 2-arylbenzofurans monitored in the samples is given in the Appendix B.
The Caco-2 cell lines were purchased from the American Type Tissue Collection (Rockville, MD, USA). Caco-2 cells in Transwells at passage 25 were used. More information on cell culture and passaging is described in [17].
Cells were cultured in DMEM-F12 (Dulbecco’s modified Eagles medium—Nutrient Mixture F-12) supplemented with 10% FBS (fetal bovine serum), 1% nonessential amino acids, 1% penicillin, and streptomycin, all obtained from Sigma-Aldrich (Prague, Czech Republic) in humidified air containing 5% CO2. Cells were seeded at a density of 2.6 × 10^5 cells/cm in 24-wells. The inserts were pre-filled with 50 µL of medium before seeding the cells. After seeding, the basolateral side of the chamber was filled with 1 mL of DMEM, and cells were grown in a humidified atmosphere of 5% CO2 at 37 °C. Non-adherent cells were removed by removing the medium after 6 h of incubation and replaced with 0.5 mL of fresh DMEM. The culture medium was replaced seven times a week for 21 to 25 days prior to the transport experiment.
The filter inserts containing a monolayer of the Caco-2 cell line were washed three times with HBBS (Hanks’ Balanced Salt solution) heated to 37 °C and pH 7.4. The integrity of the cell monolayer was confirmed by measuring the transepithelial electrical resistance (TEER), which had to be at least 600 Ω. After adding 25 µM lucifer yellow, the plates were incubated at 37 °C in 5% CO2 atmosphere for 1 h with shaking (150 rpm). Using a Tecan Infinite M200 reader (Excitation/Emission wavelength 480 nm/530 nm), the plates were measured. Only plates with an integrity greater than 95% were used in the following experiment.
Initially, 500 µL of 20 µM test substance solutions were added to the apical side of each insert and 1000 µL of HBSS were added to the basolateral side. At the same time, 50 µL were taken immediately from the apical side at the time point of 0 h. For future analysis, basolateral sampling times of 0.5, 1, 1.5, 2, 3, and 4 h were chosen while placing the plates in the incubator and using an orbital shaker (150 rpm). In this experiment, 500 µL of sample were always taken from the basolateral side and replaced with an equal amount of pure HBSS. After 4 h, the apical side was simultaneously removed, and the inserts were washed three times with HBSS. […]

[2] = set-up: method as in PMID 15636183; conditions: cited from earlier work
COX = test system: COX; set-up: method as in PMID 3097265; conditions: cited from earlier work

Structure (SMILES): CC(C)=CCc1c(O)cc(-c2cc3ccc(O)cc3o2)cc1O [Moracin C (2), moracin C]
- IC50 [1]: 3.2 ± 0.13 µM
- final concentration after 8 h of fermentation (human fecal microbiota; donor D1): 66 ± 3%
- final concentration after 8 h of fermentation (human fecal microbiota; donor D2): 87 ± 10%
- bacterial metabolites detected (human fecal microbiota): No metabolites were detected
- Apical side (unchanged parent compound) (Caco-2 cell line): 0.7 ± 0.2%
- Basolateral side (unchanged parent compound) (Caco-2 cell line): 0 ± 0%
- Cells (unchanged parent compound) (Caco-2 cell line): 8.2 ± 0.5%
- Apical side (unchanged parent compound) (Caco-2 cell line; listed as moracin C (2)): 0.7 ± 0.2%
- Cells (unchanged parent compound) (Caco-2 cell line; listed as moracin C (2)): 8.2% and 8.2 ± 0.5%
- Transformed (converted or metabolized) (Caco-2 cell line): 91.1 ± 0.7%
- Transformed (converted or metabolized) (Caco-2 cell line; listed as moracin C (2)): 91.1 ± 0.7%

Structure (SMILES): CC1=CC2c3c(O)cc(-c4cc5ccc(O)cc5o4)cc3OC3(c4ccc(O)cc4O)Oc4cc(O)ccc4C(C1)C23 (centres unmarked) [Mulberrofuran G (3), mulberrofuran G]
- concentration of parent compound after fermentation (human fecal microbiota; after 8 h, initial 10 μg/mL, in 2 donors): 5000 ng/mL
- concentration of parent compound, minimum (human fecal microbiota; at 2 h, initial 10 μg/mL, the one donor in which compound was stable): 9000 ng/mL
- concentration of parent compound after fermentation (human fecal microbiota; at 8 h, initial 10 μg/mL, the one donor in which compound was stable): 10000 ng/mL
- bacterial metabolites detected (human fecal microbiota): No metabolites were detected
- Apical side (unchanged parent compound) (Caco-2 cell line): 2.7 ± 0.5%
- Basolateral side (unchanged parent compound) (Caco-2 cell line): 0 ± 0%
- Cells (unchanged parent compound) (Caco-2 cell line): 14.0 ± 0.6%
- Apical side (unchanged parent compound) (Caco-2 cell line; listed as mulberrofuran G (3)): 2.7 ± 0.5%
- Basolateral side (unchanged parent compound) (Caco-2 cell line; listed as mulberrofuran G (3)): nothing
- Cells (unchanged parent compound) (Caco-2 cell line; listed as mulberrofuran G (3)): 14% and 14.0 ± 0.6%
- Transformed (converted or metabolized) (Caco-2 cell line): 83.3 ± 1.1%
- Transformed (converted or metabolized) (Caco-2 cell line; listed as mulberrofuran G (3)): 83.3 ± 1.1%
- antimicrobial effects [2]: potent antimicrobial effects
- COX inhibitor (COX): inhibitor

Structure (SMILES): COc1c(O)cc2oc(-c3cc(O)cc(O)c3)cc2c1C/C=C(\C)CCC=C(C)C [Mulberrofuran Y (1), mulberrofuran Y]
- IC50 [1]: 4.8 ± 0.19 µM
- final concentration after 8 h of fermentation (human fecal microbiota; donor D1): 25 ± 0%
- final concentration after 8 h of fermentation (human fecal microbiota; donor D2): 69 ± 8%
- bacterial metabolites detected (human fecal microbiota): No metabolites were detected
- became detectable on the basolateral side after (Caco-2 cell line; incubation time, basolateral sampling 0.5-4 h): 3 h
- Apical side (unchanged parent compound) (Caco-2 cell line): 8.9 ± 5.9%
- Basolateral side (unchanged parent compound) (Caco-2 cell line): 0 ± 0%
- Cells (unchanged parent compound) (Caco-2 cell line): 85.3 ± 19.9%
- Apical side (unchanged parent compound) (Caco-2 cell line; listed as mulberrofuran Y (1)): 8.9 ± 5.9%
- Basolateral side (unchanged parent compound) (Caco-2 cell line; listed as mulberrofuran Y (1)): no amount
- Cells (unchanged parent compound) (Caco-2 cell line; listed as mulberrofuran Y (1)): 85.3% and 85.3 ± 19.9%
- Transformed (converted or metabolized) (Caco-2 cell line): 5.8 ± 25.8%
- Transformed (converted or metabolized) (Caco-2 cell line; listed as mulberrofuran Y (1)): 5.8 ± 25.8%
